Reference: US20230278972A1, “SUBSTITUTED HALOALKYL SULFONANILIDE HERBICIDES” (FMC Corporation, priority 2020, published 2023)

How the values were obtained:
[1] = tested on: kochia (Bassia scoparia); assay: Test A preemergence, kochia; assay type: in vivo; details: Bassia scoparia, pre-emergence, 240 h; for pest or weed control at 500 g/ha: read-out: Kochia plant response rating
Outline: (§1)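 Seeds are sown in loam mixed with sand and sprayed on the soil surface right after planting for the preemergence test. Postemergence pots are sprayed once seedlings reach 2 to 10 cm at the one- to two-leaf stage. The same surfactant-containing, non-phytotoxic solvent formulation serves both.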

[2] = tested on: pigweed (Amaranthus retroflexus); assay: Test A postemergence, pigweed; assay type: in vivo; details: Amaranthus retroflexus, post-emergence, 240 h, read-out: Plant response rating, Pigweed
Outline: as §1

[3] = tested on: rice (Oryza sativa); assay: Test B flooded paddy test, rice; details: 336 h, read-out: Plant response rating, Rice
[4] = tested on: barnyardgrass (Echinochloa crus-galli); assay: Test A preemergence, barnyardgrass; assay type: in vivo; details: Echinochloa crus-galli, pre-emergence, 240 h; for pest or weed control at 500 g/ha: read-out: Barnyardgrass plant response rating
Outline: as §1

[5] = tested on: barnyardgrass (Echinochloa crus-galli); assay: Test B flooded paddy test, barnyardgrass; details: 336 h, read-out: Plant response rating, Barnyardgrass
[6] = tested on: wheat (Triticum aestivum); assay: Test A postemergence, wheat; assay type: in vivo; details: Triticum aestivum, post-emergence, 240 h, read-out: Plant response rating, Wheat
Outline: as §1

[7] = tested on: ducksalad (Heteranthera limosa); assay: Test B flooded paddy test, ducksalad; details: 336 h, read-out: Plant response rating, Ducksalad
[8] = tested on: galium (catchweed bedstraw, Galium aparine); assay: Test A postemergence, galium; assay type: in vivo; details: Galium, post-emergence, 240 h, read-out: Plant response rating, Galium
Outline: as §1

[9] = tested on: ragweed (common ragweed, Ambrosia artemisiifolia); assay: Test A preemergence, ragweed; assay type: in vivo; details: Ambrosia artemisiifolia, pre-emergence, 240 h; for pest or weed control at 125 g/ha: read-out: Plant response rating, Ragweed; for pest or weed control at 500 g/ha: read-out: Ragweed plant response rating
Outline: as §1

[10] = tested on: Foxtail, Giant (giant foxtail, Setaria faberi); assay: Test A postemergence, Foxtail, Giant; assay type: in vivo; details: Setaria faberi, post-emergence, 240 h, read-out: Plant response rating, Foxtail, Giant
Outline: as §1

[11] = tested on: barnyardgrass (Echinochloa crus-galli); assay: Test A postemergence, barnyardgrass; assay type: in vivo; details: Echinochloa crus-galli, post-emergence, 240 h, read-out: Plant response rating, Barnyardgrass
Outline: as §1

[12] = tested on: Ryegrass, Italian (Italian ryegrass, Lolium multiflorum); assay: Test A postemergence, Ryegrass, Italian; assay type: in vivo; details: Lolium multiflorum, post-emergence, 240 h, read-out: Plant response rating, Ryegrass, Italian
Outline: as §1

[13] = tested on: blackgrass (Alopecurus myosuroides); assay: Test A postemergence, blackgrass; assay type: in vivo; details: Alopecurus myosuroides, post-emergence, 240 h, read-out: Plant response rating, Blackgrass
Outline: as §1

[14] = tested on: corn (Zea mays); assay: Test A postemergence, corn; assay type: in vivo; details: Zea mays, post-emergence, 240 h; for plant injury at 125 g/ha / plant injury at 500 g/ha: read-out: Plant response rating, Corn
Outline: as §1

[15] = tested on: ragweed (common ragweed, Ambrosia artemisiifolia); assay: Test A postemergence, ragweed; assay type: in vivo; details: Ambrosia artemisiifolia, post-emergence, 240 h, read-out: Plant response rating, Ragweed
Outline: as §1

[16] = tested on: kochia (Bassia scoparia); assay: Test A postemergence, kochia; assay type: in vivo; details: Bassia scoparia, post-emergence, 240 h, read-out: Plant response rating, Kochia
Outline: as §1

[17] = tested on: Ryegrass, Italian (Italian ryegrass, Lolium multiflorum); assay: Test A preemergence, Ryegrass, Italian; assay type: in vivo; details: Lolium multiflorum, pre-emergence, 240 h; for pest or weed control at 500 g/ha: read-out: Ryegrass, Italian plant response rating
Outline: as §1

[18] = tested on: Foxtail, Giant (giant foxtail, Setaria faberi); assay: Test A preemergence, Foxtail, Giant; assay type: in vivo; details: Setaria faberi, pre-emergence, 240 h; for pest or weed control at 500 g/ha: read-out: Foxtail, Giant plant response rating
Outline: as §1

[19] = tested on: pigweed (Amaranthus retroflexus); assay: Test A preemergence, pigweed; assay type: in vivo; details: Amaranthus retroflexus, pre-emergence, 240 h, 1000 g ai/ha, 0 to 100 scale (0 no effect, 100 complete control), read-out: Plant response rating, Pigweed
Outline: as §1

[20] = read-out: Plant response rating, Kochia
[21] = read-out: Plant response rating, Barnyardgrass
[22] = read-out: Plant response rating, Ryegrass, Italian
[23] = read-out: Plant response rating, Foxtail, Giant
[24] = Postemergence, 1000 g ai/ha, visual injury, 0 to 100 scale (0 no effect, 100 complete control), approx. 10 days

| Compound | pest or weed control at 500 g/ha [1] | pest or weed control at 125 g/ha [1, 20] | pest or weed control at 125 g/ha [2] | pest or weed control at 500 g/ha [2] | plant injury at 250 g/ha [3] | pest or weed control at 500 g/ha [4] | pest or weed control at 125 g/ha [4, 21] | pest or weed control at 250 g/ha [5] | plant injury at 125 g/ha [6] | plant injury at 500 g/ha [6] | pest or weed control at 250 g/ha [7] | pest or weed control at 125 g/ha [8] | pest or weed control at 500 g/ha [8] | pest or weed control at 125 g/ha [9] | pest or weed control at 500 g/ha [9] | pest or weed control at 125 g/ha [10] | pest or weed control at 500 g/ha [10] | pest or weed control at 125 g/ha [11] | pest or weed control at 500 g/ha [11] | pest or weed control at 125 g/ha [12] | further results |
| --- | --- | --- | --- | --- | --- | --- | --- | --- | --- | --- | --- | --- | --- | --- | --- | --- | --- | --- | --- | --- | --- |
| Cc1cc(C)c(N(COC(=O)C(C)(C)C)S(=O)(=O)C(F)(F)F)cc1N1CCC2(CCCCC2)C1=O [Compound 268, [[2,4-Dimethyl-5-(1-oxo-2-azaspiro[4.5]dec-2-yl)phenyl][(trifluoromethyl)sulfonyl]amino]methyl 2,2-dimethylpropanoate] | 70% | 70% | 60% | 80% | 0% | 50% | 40% | 40% | 50% | 70% | 70% | 90% | 90% | 40% | 90% | 0% | 30% | 50% | 80% | 40% | pest or weed control at 500 g/ha [12]: 60%; pest or weed control at 125 g/ha [13]: 20%; pest or weed control at 500 g/ha [13]: 40%; plant injury at 125 g/ha [14]: 50%; plant injury at 500 g/ha [14]: 70%; pest or weed control at 125 g/ha [15]: 70%; pest or weed control at 500 g/ha [15]: 90%; pest or weed control at 125 g/ha [16]: 30%; pest or weed control at 500 g/ha [16]: 40%; pest or weed control at 125 g/ha [17, 22]: 0%; pest or weed control at 500 g/ha [17]: 60%; pest or weed control at 500 g/ha [18]: 70%; pest or weed control at 125 g/ha [18, 23]: 50% |
| Cc1cc(C)c(C(=O)N2CCOCC2)cc1NS(=O)(=O)C(F)(F)F [Compound 6, N-[2,4-Dimethyl-5-(4-morpholinylcarbonyl)phenyl]-1,1,1-trifluoromethanesulfonamide] |  |  |  |  | 0% |  |  | 0% |  |  | 0% |  |  |  |  |  |  |  |  |  | pest or weed control at 1000 g/ha ([1]; Preemergence, 1000 g ai/ha, 0 to 100 scale (0 no effect, 100 complete control), read-out: Plant response rating, Kochia): 100%; pest or weed control at 1000 g/ha [2, 24]: 100%; pest or weed control at 1000 g/ha ([4]; Preemergence, 1000 g ai/ha, 0 to 100 scale (0 no effect, 100 complete control), read-out: Plant response rating, Barnyardgrass): 100%; plant injury at 1000 g/ha [6, 24]: 60%; pest or weed control at 1000 g/ha [19]: 100%; pest or weed control at 1000 g/ha [8, 24]: 90%; pest or weed control at 1000 g/ha [10, 24]: 90%; pest or weed control at 1000 g/ha [11, 24]: 90%; pest or weed control at 1000 g/ha [12, 24]: 80%; pest or weed control at 1000 g/ha [13, 24]: 60%; Corn plant response rating (crop injury, 0 = no effect, 100 = complete kill) at 1000 g/ha [14, 24]: 60%; pest or weed control at 1000 g/ha [15, 24]: 50%; pest or weed control at 1000 g/ha [16, 24]: 80%; pest or weed control at 1000 g/ha ([17]; Preemergence, 1000 g ai/ha, 0 to 100 scale (0 no effect, 100 complete control), read-out: Plant response rating, Ryegrass, Italian): 100%; pest or weed control at 1000 g/ha ([18]; Preemergence, 1000 g ai/ha, 0 to 100 scale (0 no effect, 100 complete control), read-out: Plant response rating, Foxtail, Giant): 100% |
| Cc1cc(C)c(N2CCC3(CCCCC3)C2=O)cc1NS(=O)(=O)C(F)(F)F [Compound 278, N-[2,4-Dimethyl-5-(1-oxo-2-azaspiro[4.5]dec-2-yl)phenyl]-1,1,1-trifluoromethanesulfonamide] | 100% | 90% | 60% | 90% | 15% | 100% | 60% | 0% | 60% | 70% | 85% | 90% | 90% | 90% | 100% | 0% | 20% | 20% | 80% | 30% | pest or weed control at 500 g/ha [12]: 80%; pest or weed control at 125 g/ha [13]: 0%; pest or weed control at 500 g/ha [13]: 50%; plant injury at 125 g/ha [14]: 0%; plant injury at 500 g/ha [14]: 30%; pest or weed control at 125 g/ha [15]: 40%; pest or weed control at 500 g/ha [15]: 60%; pest or weed control at 125 g/ha [16]: 30%; pest or weed control at 500 g/ha [16]: 70%; pest or weed control at 125 g/ha [17, 22]: 100%; pest or weed control at 500 g/ha [17]: 100%; pest or weed control at 500 g/ha [18]: 100%; pest or weed control at 125 g/ha [18, 23]: 60% |
| Cc1cc(C)c(N(S(=O)(=O)C(F)(F)F)S(=O)(=O)C(F)(F)F)cc1N1CCC2(CCCCC2)C1=O [Compound 267, N-[2,4-Dimethyl-5-(1-oxo-2-azaspiro[4.5]dec-2-yl)phenyl]-1,1,1-trifluoro-N-[(trifluoromethyl)sulfonyl]methanesulfonamide] | 100% | 80% | 50% | 80% | 0% | 100% | 100% | 0% | 40% | 60% | 35% | 80% | 90% | 100% | 100% | 0% | 0% | 20% | 20% | 0% | pest or weed control at 500 g/ha [12]: 30%; pest or weed control at 125 g/ha [13]: 0%; pest or weed control at 500 g/ha [13]: 20%; plant injury at 125 g/ha [14]: 0%; plant injury at 500 g/ha [14]: 0%; pest or weed control at 125 g/ha [15]: 10%; pest or weed control at 500 g/ha [15]: 40%; pest or weed control at 125 g/ha [16]: 40%; pest or weed control at 500 g/ha [16]: 60%; pest or weed control at 125 g/ha [17, 22]: 90%; pest or weed control at 500 g/ha [17]: 100%; pest or weed control at 500 g/ha [18]: 100%; pest or weed control at 125 g/ha [18, 23]: 100% |
